Data taken from patent US20260199282A1, “METHODS AND COMPOSITIONS FOR IMPROVING DRIVING PERFORMANCE” (priority 2022, published 2026).

System: subjects with EDS due to OSA
Assay: Standardized on-road highway driving test, OSA study
Assay type: in vivo, human
Experimental: This was a randomized, double-blind, placebo-controlled, crossover, on-road driving study in subjects with EDS due to OSA. A total of 40 adult subjects were planned for enrollment, and 34 subjects were randomized. Subjects received either solriamfetol (150 mg QD for 3 days, followed by 300 mg QD for 4 days) or matching placebo for 7 days, and then crossed over to receive the other treatment regimen for 7 days (FIG. 4). […] The PVT was administered predose and prior to each driving test. Actigraphy and a sleep diary were used to assess daily sleep patterns. The Toronto Hospital Alertness Test (THAT) was administered at baseline and at the end of each treatment period. A Follow-up Visit was performed approximately 7 days after the final dose of study drug. Subjects were recruited at clinical sites. Eligibility was determined through screening procedures (including a Maintenance of Wakefulness Test [MWT]) at the clinical sites after the washout of prohibited medications, and a practice driving test at the driving test site. A total of 40 adult subjects were planned for enrollment; 34 subjects were randomized and analyzed for safety and efficacy.
Assessments to determine driving performance included: standard deviation of lateral position (SDLP; Verster and Roth 2011; Raemakers 2017), standard deviation of speed (SDS), and number of driving lapses (also known as lane drift, defined as deviations>100 cm from the mean lateral position and from the absolute lateral position for 8 seconds; Vinckenbosch 2020). Driving performance was assessed using a standardized on-road driving test on Day 7 (Visit 4) and on Day 14 (Visit 5). A practice driving test was performed during the screening period to familiarize the subject with the vehicle and test scenario, assess if the subject could adequately operate the manual transmission vehicle, and determine if any safety concerns existed that excluded the subject from participating in the study.
During each drive, subjects operated a specially instrumented vehicle for approximately 1 hour over a 100 km (61 mile) primary highway circuit. During each driving test, each subject was accompanied by a licensed driving instructor who had access to dual controls (i.e., brakes, clutch, and accelerator). The subject or instructor could stop the test if either considered it unsafe to continue. The subject was instructed to drive with a steady lateral position between the delineated boundaries of the slower (right) traffic lane, while maintaining a constant speed of
95 km/h (58 mph). Subjects could deviate from these instructions only to pass a slower vehicle, to respond to a slower speed in traffic ahead of him/her and to leave and re-enter the highway at the turnaround point. During the drive, the vehicle's speed and lateral distance to the left lane line were continuously recorded and captured on an onboard computer disk file. Subjects were transported to and from the driving circuit on each test day.
The primary analysis was based on the mITT population. The primary outcome measure of mean change in SDLP was analyzed using a repeated mixed effect analysis of variance (ANOVA) model. The model included treatment (solriamfetol and placebo), driving performance test (2 hours postdose and 6 hours postdose), treatment period, treatment sequence, and treatment by driving performance test interaction as fixed effects and subject as a random effect. The 2-sided 95% confidence intervals of solriamfetol-placebo changes for SDLP based on the repeated mixed effect ANOVA model was constructed for each driving performance test.
Individual changes (solriamfetol minus placebo) in driving performance were measured by SDLP at 2 hours and 6 hours postdose. The Maximum McNemar symmetry analyses (Laska et al. 2012) were used to detect an asymmetry in the distribution of the change in driving performance at 2 hours and 6 hours post-dose. […]

[1] = 2 hours postdose, mITT, primary analysis, listed as JZP-110
[2] = 2 hours postdose, sequence JZP-110/Placebo, mITT
[3] = 2 hours postdose, sequence Placebo/JZP-110, mITT
[4] = 6 hours postdose, sequence JZP-110/Placebo, mITT
[5] = 6 hours postdose, sequence Placebo/JZP-110, mITT

NC(=O)OC[C@H](N)Cc1ccccc1 [Solriamfetol, (R)-2-amino-3-phenylpropyl carbamate]
Maximum McNemar test, distribution of change in driving performance (2 hours and 6 hours post-dose, mITT): did not show asymmetry | driving lapses, LS mean difference solriamfetol vs placebo (2 hours postdose): −1.128 lapses | standard deviation of speed (SDS), LS mean difference (2 hours postdose): 0.068 km/h | SDLP, mean (SD), observed (2 hours postdose, day 7, 300 mg/day, mITT): 18.83 (3.690) cm | SDLP, mean (SD) difference (JZP-110 − Placebo) (2 hours postdose, mITT): −1.11 (2.520) cm | SDLP, median difference (JZP-110 − Placebo) (2 hours postdose, mITT): −0.78 cm | SDLP, median, observed (2 hours postdose, mITT): 18.39 cm | SDLP, LS mean (SE) (2 hours postdose, mITT, primary analysis): 18.83 cm | SDLP, LS mean (SE) [1]: 18.83 (0.627) cm | SDLP, LS mean difference (JZP-110 − Placebo) [1]: −1.084 cm | SDLP, mean (SD) [2]: 18.58 (3.831) cm | SDLP, mean difference JZP-110 vs placebo [2]: −0.26 cm | SDLP, median [2]: 17.98 cm | SDLP, median difference JZP-110 vs placebo [2]: −0.18 cm | SDLP, mean difference JZP-110 vs placebo [3]: −1.91 cm | SDLP, median [3]: 20.00 cm | SDLP, median difference JZP-110 vs placebo [3]: −2.46 cm | SDLP, mean (SD) (2 hours postdose, sequence Placebo/JZP-110, mITT, listed as JZP-110): 19.08 (3.643) cm | SDLP, mean (SD) (2 hours postdose, sequence Placebo/JZP-110, mITT, listed as solriamfetol): 19.08 cm | driving lapses, LS mean difference solriamfetol vs placebo (6 hours postdose): 0.050 lapses | standard deviation of speed (SDS), LS mean difference (6 hours postdose): −0.109 km/h | SDLP, LS mean difference, sensitivity analysis (6 hours postdose, PP population): −1.037 cm | SDLP, LS mean (SE) (6 hours postdose, mITT): 19.24 (0.631) cm | SDLP, LS mean difference (JZP-110 − Placebo) (6 hours postdose, mITT): −0.804 cm | SDLP, mean (SD) [4]: 19.23 (3.224) cm | SDLP, mean difference JZP-110 vs placebo [4]: 0.20 cm | SDLP, median [4]: 18.92 cm | SDLP, median difference JZP-110 vs placebo [4]: 0.43 cm | SDLP, mean difference JZP-110 vs placebo [5]: −1.91 cm | SDLP, median [5]: 19.24 cm | SDLP, median difference JZP-110 vs placebo [5]: −1.33 cm | SDLP, mean (SD) (6 hours postdose, sequence Placebo/JZP-110, mITT, listed as JZP-110): 19.23 (3.593) cm | SDLP, mean (SD) (6 hours postdose, sequence Placebo/JZP-110, mITT, listed as solriamfetol): 19.23 cm | SDLP, difference in median values between the 2 treatments (solriamfetol-placebo) (placebo as initial treatment, both time points (2 and 6 hours postdose)): −1.91 cm | subjects who failed to complete the driving test (solriamfetol condition): 3 subjects | single McNemar test: proportion improved drivers versus impaired (threshold of 1.0 cm, 2 h post dose): 29.4%
